Data reported in patent publication US20240270741A1 (Cogent Biosciences, Inc., priority 2023, published 2024).

Biological target: FGFR2 (Homo sapiens, UniProt P21802)
Test: FGFR wild type enzyme assay (HTRF KinEASE-TK), FGFR2
Conditions: Enz FGFR2 (nM), FGFR2 wild type enzyme assay

FGFR2, sequence (P21802 399-821 limits assumed): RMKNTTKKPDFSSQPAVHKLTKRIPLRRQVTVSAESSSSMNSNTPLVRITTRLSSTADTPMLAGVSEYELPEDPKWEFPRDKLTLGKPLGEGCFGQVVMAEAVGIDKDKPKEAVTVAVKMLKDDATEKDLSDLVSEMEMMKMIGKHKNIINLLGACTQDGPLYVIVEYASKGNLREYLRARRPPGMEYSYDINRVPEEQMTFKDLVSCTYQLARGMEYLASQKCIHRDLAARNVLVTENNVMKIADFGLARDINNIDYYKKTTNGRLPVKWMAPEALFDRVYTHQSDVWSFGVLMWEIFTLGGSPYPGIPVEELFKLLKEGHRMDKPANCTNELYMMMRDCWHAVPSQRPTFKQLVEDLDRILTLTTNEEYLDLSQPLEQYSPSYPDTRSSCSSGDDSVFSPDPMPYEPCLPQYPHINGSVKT

Row | IC50 [nM] | Compound
1 | 6 | Cn1cc(-c2cc(Sc3ncccc3F)c3c(C#N)cnn3c2)cn1 [Example 466, 4-((3-fluoropyridin-2-yl)thio)-6-(1-methyl-1H-pyrazol-4-yl)pyrazolo[1,5-a]pyridine-3-carbonitrile]
2 | 0.4 | CN1CCN(c2ccc(-c3cc(Sc4ncccc4F)c4c(C#N)cnn4c3)cc2)CC1 [Example 467, 4-((3-fluoropyridin-2-yl)thio)-6-(4-(4-methylpiperazin-1-yl)phenyl)pyrazolo[1,5-a]pyridine-3-carbonitrile]
3 | 1 | Cn1cc(-c2cc(Sc3ccccc3C#N)c3c(C#N)cnn3c2)cn1 [Example 468, 4-((2-cyanophenyl)thio)-6-(1-methyl-1H-pyrazol-4-yl)pyrazolo[1,5-a]pyridine-3-carbonitrile]
4 | 0.2 | CN1CCN(c2ccc(-c3cc(Sc4ccccc4C#N)c4c(C#N)cnn4c3)cc2)CC1 [Example 469, 4-((2-cyanophenyl)thio)-6-(4-(4-methylpiperazin-1-yl)phenyl)pyrazolo[1,5-a]pyridin-3-carbonitrile]
5 | 1 | Cc1c(-c2cc(Sc3ccc(F)cc3C#N)c3c(C#N)cnn3c2)cnn1[C@H]1CC[C@](O)(CO)CC1 [Example 470, 4-((2-cyano-4-fluorophenyl)thio)-6-(1-((1s,4s)-4-hydroxy-4-(hydroxymethyl)cyclohex-yl)-5-methyl-1H-pyrazol-4-yl)pyrazolo[1,5-a]pyridine-3-carbonitrile]
6 | 1 | CC1(C)C[C@H](n2cc(-c3cc(Sc4ncccc4F)c4c(C#N)cnn4c3)cn2)CN1 [Example 471, (S)-6-(1-(5,5-dimethylpyrrolidin-3-yl)-1H-pyrazol-4-yl)-4-((3-fluoropyridin-2-yl)thio)pyrazolo[1,5-a]pyridine-3-carbonitrile]
7 | 0.3 | CC1(C)C[C@H](n2cc(-c3cc(Sc4ccccc4C#N)c4c(C#N)cnn4c3)cn2)CN1 [Example 472, (S)-4-((2-cyanophenyl)thio)-6-(1-(5,5-dimethylpyrrolidin-3-yl)-1H-pyrazol-4-yl)pyrazolo[1,5-a]pyridine-3-carbonitrile]
8 | 1 | CC1(C)C[C@@H](n2cc(-c3cc(Sc4ncccc4F)c4c(C#N)cnn4c3)cn2)CN1 [Example 473, (R)-6-(1-(5,5-dimethylpyrrolidin-3-yl)-1H-pyrazol-4-yl)-4-((3-fluoropyridin-2-yl)thio)pyrazolo[1,5-a]pyridine-3-carbonitrile]
9 | 0.2 | CC1(C)C[C@@H](n2cc(-c3cc(Sc4ccccc4C#N)c4c(C#N)cnn4c3)cn2)CN1 [Example 474, (R)-4-((2-cyanophenyl)thio)-6-(1-(5,5-dimethylpyrrolidin-3-yl)-1H-pyrazol-4-yl)pyrazolo[1,5-a]pyridine-3-carbonitrile]
10 | 1 | C[C@H](O)C(=O)N1CCC(n2cc(-c3cc(Sc4ccc(F)cc4C#N)c4c(C#N)cnn4c3)cn2)CC1 [Example 475, (S)-4-((2-cyano-4-fluorophenyl)thio)-6-(1-(1-(2-hydroxypropanoyl)piperidin-4-yl)-1H-pyrazol-4-yl)pyrazolo[1,5-a]pyridine-3-carbonitrile]
11 | 1 | N#Cc1cnn2cc(-c3cnn([C@H]4CCN(C5CC(O)C5)C4)c3)cc(Sc3ncccc3F)c12 (stereo partly drawn) [Example 476, (S)-4-((3-fluoropyridin-2-yl)thio)-6-(1-(1-(3-hydroxycyclobutyl)pyrroli-din-3-yl)-1H-pyrazol-4-yl)pyrazolo[1,5-a]pyridine-3-carbonitrile]
12 | 1 | CC(C)(O)CN1CC[C@H](n2cc(-c3cc(Sc4ncccc4F)c4c(C#N)cnn4c3)cn2)C1 [Example 477, (S)-4-((3-fluoropyridin-2-yl)thio)-6-(1-(1-(2-hydroxy-2-methylpropyl)pyrrolidin-3-yl)-1H-pyrazol-4-y)pyrazolo[1,5-a]pyridine-3-carbonitrile]
13 | 1 | COC(=O)N1CCC(n2cc(-c3cc(Sc4ncccc4F)c4c(C#N)cnn4c3)cn2)CC1 [Example 478, methyl 4-(4-(3-cyano-4-((3-fluoropyridin-2-yl)thio)pyrazolo[1,5-a]pyridin-6-yl)-1H-pyrazol-1-yl)piperidine-1-carboxylate]
14 | 1 | COC(=O)N1CCC[C@H](n2cc(-c3cc(Sc4ncccc4F)c4c(C#N)cnn4c3)cn2)C1 [Example 479, methyl (S)-3-(4-(3-cyano-4-((3-fluoropyridin-2-yl)thio)pyrazolo[1,5-a]pyridin-6-yl)-1H-pyrazol-1-yl)piperidine-1-carboxylate]
15 | 1 | COC(=O)N1CC[C@H](n2cc(-c3cc(Sc4ncccc4F)c4c(C#N)cnn4c3)cn2)C1 [Example 480, methyl (S)-3-(4-(3-cyano-4-((3-fluoropyridin-2-yl)thio)pyrazolo[1,5-a]pyridin-6-yl)-1H-pyrazol-1-yl)pyrrolidine-1-carboxylate]
16 | 4 | COC(=O)N1CCC(n2cc(-c3cc(Sc4ccccc4C#N)c4c(C#N)cnn4c3)cn2)CC1 [Example 481, methyl 4-(4-(3-cyano-4-((2-cyanophenyl)thio)pyrazolo [1,5-a]pyridin-6-yl)-1H-pyrazol-1-yl)piperidine-1-carboxylate]

Row | IC50 [nM] | Compound
17 | 1 | COC(=O)N1CCC[C@H](n2cc(-c3cc(Sc4ccccc4C#N)c4c(C#N)cnn4c3)cn2)C1 [Example 482, methyl (S)-3-(4-(3-cyano-4-((2-cyanophenyl)thio)pyrazolo [1,5-a]pyridin-6-yl)-1H-pyrazol-1-yl)piperidine-1-carboxylate]
18 | 0.5 | COC(=O)N1CC[C@H](n2cc(-c3cc(Sc4ccccc4C#N)c4c(C#N)cnn4c3)cn2)C1 [Example 483, methyl (S)-3-(4-(3-cyano-4-((2-cyanophenyl)thio)pyrazolo [1,5-a]pyridin-6-yl)-1H-pyrazol-1-yl)pyrrolidine-1-carboxylate]
19 | 0.4 | N#Cc1ccccc1Sc1cc(-c2cnn([C@H]3CCN(C(=O)CO)C3)c2)cn2ncc(C#N)c12 [Example 484, (S)-4-((2-cyanophenyl)thio)-6-(1-(1-(2-hydroxyacetyl)pyrrolidin-3-yl)-1H-pyrazol-4-yl)pyrazolo[1,5-a]pyridine-3-carbonitrile]
20 | 0.4 | N#Cc1ccccc1Sc1cc(-c2cnn([C@H]3CCN(CCO)C3)c2)cn2ncc(C#N)c12 [Example 485, (S)-4-((2-cyanophenyl)thio)-6-(1-(1-(2-hydroxyethyl)pyrrolidin-3-yl)-1H-pyrazol-4-yl)pyrazolo[1,5-a]pyridine-3-carbonitrile]
21 | 9 | Cc1c(-c2cc(Sc3ccc(F)cc3C#N)c3c(C#N)cnn3c2)cnn1CC(C)(C)O [Example 486, 4-((2-cyano-4-fluorophenyl)thio)-6-(1-(2-hydroxy-2-methylpropyl)-5-methyl-1H-pyrazol-4-yl)pyrazolo[1,5-a]pyridine-3-carbonitrile]
22 | 0.4 | N#Cc1ccccc1Sc1cc(-c2cnn([C@H]3CCCNC3)c2)cn2ncc(C#N)c12 [Example 487, (S)-4-((2-cyanophenyl)thio)-6-(1-(piperidin-3-yl)-1H-pyrazol-4-yl)pyrazolo[1,5-a]pyridine-3-carbonitrile]
23 | 1 | CC(=O)N[C@H]1CC[C@@H](n2ncc(-c3cc(Sc4nc(C)c(F)cc4F)c4c(C#N)cnn4c3)c2C)CC1 [Example 488, N-((1s,4s)-4-(4-(3-cyano-4-((3,5-difluoro-6-methylpyridin-2-yl)thio)pyrazolo[1,5-a]pyridin-6-yl)-5-methyl-1H-pyrazol-1-yl)cyclohexyl)acetamide]
24 | 3 | CC(C)(C)n1cc(-c2cc(Sc3ncccc3F)c3c(C#N)cnn3c2)cn1 [Example 489, 6-(1-(tert-butyl)-1H-pyrazol-4-yl)-4-((3-fluoropyridin-2-y)thio)pyrazolo[1,5-a]pyridine-3-carbonitrile]
25 | 2 | CC(C)(O)Cn1cc(-c2cc(Sc3ncccc3F)c3c(C#N)cnn3c2)cn1 [Example 490, 4-((3-fluoropyridin-2-yl)thio)-6-(1-(2-hydroxy-2-methylpropyl)-1H-pyrazol-4-yl)pyrazolo[1,5-a]pyridine-3-carbonitrile]
26 | 1 | N#Cc1cnn2cc(-c3ccc(N4CCOCC4)nc3)cc(Sc3ncccc3F)c12 [Example 491, 4-((3-fluoropyridin-2-yl)thio)-6-(6-morpholinopyridin-3-yl)pyrazolo[1,5-a]pyridine-3-carbonitrile]
27 | 1 | N#Cc1ccccc1Sc1cc(-c2cnn(C[C@@H](O)CO)c2)cn2ncc(C#N)c12 [Example 492, (R)-4-((2-cyanophenyl)thio)-6-(1-(2,3-dihydroxypropyl)-1H-pyrazol-4-yl)pyrazolo[1,5-a]pyridine-3-carbonitrile]
28 | 1 | CC(C)(C)n1cc(-c2cc(Sc3ccccc3C#N)c3c(C#N)cnn3c2)cn1 [Example 493, 6-(1-(tert-butyl)-1H-pyrazol-4-yl)-4-((2-cyanophenyl)thio)pyrazolo [1,5-a]pyridine-3-carbonitrile]
29 | 1 | CC(C)(O)Cn1cc(-c2cc(Sc3ccccc3C#N)c3c(C#N)cnn3c2)cn1 [Example 494, 4-((2-cyanophenyl)thio)-6-(1-(2-hydroxy-2-methylpropyl)-1H-pyrazol-4-yl)pyrazolo[1,5-a]pyridine-3-carbonitrile]
30 | 1 | N#Cc1ccccc1Sc1cc(-c2ccc(N3CCOCC3)nc2)cn2ncc(C#N)c12 [Example 495, 4-((2-cyanophenyl)thio)-6-(6-morpholinopyridin-3-yl)pyrazolo[1,5-a]pyridine-3-carbonitrile]
31 | 3 | Cc1c(-c2cc(Sc3ccc(F)cc3C#N)c3c(C#N)cnn3c2)cnn1[C@H]1CCC[C@H](O)C1 [Example 496, 4-((2-cyano-4-fluorophenyl)thio)-6-(1-((1S,3S)-3-hydroxycyclohexyl)-5-methyl-1H-pyrazol-4-yl)pyrazolo[1,5-a]pyridine-3-carbonitrile]
32 | 1 | Cc1c(-c2cc(Sc3ccc(F)cc3C#N)c3c(C#N)cnn3c2)cnn1[C@@H]1CCC[C@@H](O)C1 [Example 497, 4-((2-cyano-4-fluorophenyl)thio)-6-(1-((1R,3R)-3-hydroxycyclohexyl)-5-methyl-1H-pyrazol-4-y)pyrazolo[1,5-a]pyridine-3-carbonitrile]
